This is an account of results in patent US8609836B2, “4-aryl-2-anilino-pyrimidines” (Janssen Pharmaceutica NV, priority 2008, dated 2013).

One experiment concerns the target PLK4 (h) (Homo sapiens, UniProt O00444). The experiment in a line: PLK-4 human kinase inhibition, scintillation proximity assay (SPA). Format: biochemical. To be noted: read-out: PLK4 pIC50 (converted).
The next experiment has as its system U87-MG. The experiment in a line: Cellular proliferation assay (Alamar blue), U87-MG. It is filed as cell-based. To be noted: Homo sapiens, U-87 MG; 10% FCS; 72 hours with compound; Alamar blue 6 h; read-out: U87-MG (cellular proliferation assay, Table 4) (converted). The procedure, abridged: (§1)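 Alamar blue fluorescence (544/590 nm) measured viable cells after 72 h compound exposure; dye incubation 4 h (HCT-116), 6 h (U87-MG) or 24 h (A2780, MDA-MB-231). Cells pre-seeded 24 h, grown in 10% FCS, 37° C, 5% CO2; effect expressed relative to control cells.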

The target in a further experiment is PLK1 T210D (h) (Homo sapiens, UniProt P53350, T210D). The experiment in a line: PLK1 human kinase inhibition, SPA. To be noted: read-out: PLK1 pIC50 (converted). Format: biochemical. The procedure, abridged: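 Kinase incubated 40 min at room temperature with 0.1 μM ATP (2 nM [γ-33P]ATP tracer), 2 μM biotinylated peptide, pH 8.0 Hepes buffer with 2 mM MnCl2 and 1 mM DTT; enzyme at 0.125 ng/ml. Stopped with EDTA; 33P-peptide bound to streptavidin scintillant beads and imaged.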
PLK1 T210D (h), sequence (P53350 whole entry T210D): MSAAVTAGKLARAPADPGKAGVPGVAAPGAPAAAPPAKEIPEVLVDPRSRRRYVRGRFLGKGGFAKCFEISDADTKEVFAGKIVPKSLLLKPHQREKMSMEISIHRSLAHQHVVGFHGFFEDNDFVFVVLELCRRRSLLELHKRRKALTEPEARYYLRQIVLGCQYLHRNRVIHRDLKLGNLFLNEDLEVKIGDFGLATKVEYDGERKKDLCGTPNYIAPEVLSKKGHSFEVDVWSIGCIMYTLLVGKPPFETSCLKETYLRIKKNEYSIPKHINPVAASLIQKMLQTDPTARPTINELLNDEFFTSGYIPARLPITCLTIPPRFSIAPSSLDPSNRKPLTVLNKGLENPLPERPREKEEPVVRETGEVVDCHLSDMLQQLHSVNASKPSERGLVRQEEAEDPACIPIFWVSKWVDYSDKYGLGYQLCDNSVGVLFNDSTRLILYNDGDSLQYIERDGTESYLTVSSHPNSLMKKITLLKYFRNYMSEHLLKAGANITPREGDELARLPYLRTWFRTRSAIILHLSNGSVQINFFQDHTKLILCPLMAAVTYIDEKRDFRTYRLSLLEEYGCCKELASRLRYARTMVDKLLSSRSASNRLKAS

The next experiment deals with MDA-MB-231. As to the kind of experiment: Cellular proliferation assay (Alamar blue), MDA-MB-231. To be noted: Homo sapiens, 10% FCS, 72 hours with compound, Alamar blue 24 h, read-out: MDA/MB231 (cellular proliferation assay, Table 4) (converted). Format: cell-based. The procedure, abridged:
as §1
On the technique in general: The colour change of resazurin is a common sign of viable cells or microbes.

The test system of a further experiment is A2780. The experiment in a line: Cellular proliferation assay (Alamar blue), A2780. It is filed as cell-based. To be noted: Homo sapiens, 10% FCS, 72 hours with compound, Alamar blue 24 h, read-out: A2780 (cellular proliferation assay, Table 4) (converted). The procedure, abridged:
as §1

PLK4 (h), sequence (O00444 whole entry): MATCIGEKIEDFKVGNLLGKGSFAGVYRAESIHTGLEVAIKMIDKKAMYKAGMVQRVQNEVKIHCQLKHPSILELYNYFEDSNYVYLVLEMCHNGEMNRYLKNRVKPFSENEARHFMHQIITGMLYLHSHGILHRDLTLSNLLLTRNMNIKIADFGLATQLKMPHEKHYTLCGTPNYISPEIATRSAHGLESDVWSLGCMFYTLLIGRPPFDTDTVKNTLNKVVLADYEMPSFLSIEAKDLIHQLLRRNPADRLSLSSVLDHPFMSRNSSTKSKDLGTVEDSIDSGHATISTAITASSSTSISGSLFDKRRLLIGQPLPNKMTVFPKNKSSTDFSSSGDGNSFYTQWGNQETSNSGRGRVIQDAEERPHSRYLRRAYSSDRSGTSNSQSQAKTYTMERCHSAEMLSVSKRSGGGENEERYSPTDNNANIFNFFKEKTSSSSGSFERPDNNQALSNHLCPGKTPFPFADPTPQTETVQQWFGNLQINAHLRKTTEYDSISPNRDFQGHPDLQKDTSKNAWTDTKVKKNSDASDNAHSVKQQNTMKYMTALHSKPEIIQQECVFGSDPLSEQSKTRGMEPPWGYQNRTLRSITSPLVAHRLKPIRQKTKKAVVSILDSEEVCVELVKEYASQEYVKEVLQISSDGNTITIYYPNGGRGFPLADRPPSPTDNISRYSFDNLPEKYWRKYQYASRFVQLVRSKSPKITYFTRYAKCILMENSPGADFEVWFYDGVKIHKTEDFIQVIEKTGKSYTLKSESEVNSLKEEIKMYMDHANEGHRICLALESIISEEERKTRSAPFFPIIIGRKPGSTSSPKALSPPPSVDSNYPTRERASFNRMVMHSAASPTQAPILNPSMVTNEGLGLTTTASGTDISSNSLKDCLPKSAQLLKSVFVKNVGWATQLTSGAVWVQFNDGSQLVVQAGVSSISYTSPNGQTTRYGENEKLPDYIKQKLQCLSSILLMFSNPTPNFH

For the molecule `COc1ccc2cc1CN(C)CCCNC(=O)C1CCN(CC1)Cc1cc(Br)cc(c1)Nc1nccc-2n1` [Compound 76], the IC50 on PLK4 (h) is 3.24 µM; in the experiment on U87-MG, 7.24 µM; on PLK1 T210D (h), more than 10 µM; in the experiment with MDA-MB-231, 6.76 µM; in the experiment on A2780 it was more than 10 µM.
As for `O=C1NCCNc2cc(ccn2)-c2ccnc(n2)Nc2ccc(N3CCOCC3)c(c2)CN2CCCC12` (stereo not drawn) [Compound 161], the IC50 at PLK4 (h) is 1.58 µM; in the experiment with U87-MG, more than 10 µM; at PLK1 T210D (h), more than 10 µM; with MDA-MB-231 it was more than 10 µM; in the experiment on A2780, 9.77 µM.
Consider `CC(C)Nc1cc2cc(c1)Nc1nccc(n1)-c1ccc(cc1)CN(C)CCNC(=O)[C@@H]1CCCN1C2` [Compound 153], for which the IC50 at PLK4 (h) was 0.776 µM; in the experiment with U87-MG, 5.75 µM; on PLK1 T210D (h), more than 10 µM; with MDA-MB-231, more than 10 µM; with A2780 it was more than 10 µM.
As to `CN1CCNC(=O)C2CCN(CC2)Cc2cc(cc(N3CCOCC3)c2)Nc2nccc(n2)-c2ccc(cc2)C1` [Compound 68], the IC50 at PLK4 (h) was 1.55 µM; in the experiment on U87-MG, 7.59 µM; at PLK1 T210D (h), more than 10 µM; with MDA-MB-231 it was more than 10 µM; in the experiment on A2780 it was more than 10 µM.
For `COc1ccc2cc1CN(C)CCCNC(=O)C1CCN(CC1)Cc1cccc(c1)Nc1nccc-2n1` [Compound 81], the IC50 was 5.5 µM at PLK4 (h); more than 10 µM with U87-MG; more than 10 µM at PLK1 T210D (h); more than 10 µM in the experiment with MDA-MB-231; more than 10 µM with A2780.
Turning to `O=C1NCCCOc2ccc(cc2)-c2ccnc(n2)Nc2ccc(N3CCOCC3)c(c2)CN2CCC[C@@H]12` [Compound 7], the IC50 was 0.316 µM at PLK4 (h); 4.37 µM with U87-MG; more than 10 µM on PLK1 T210D (h); more than 10 µM in the experiment on MDA-MB-231; more than 10 µM in the experiment on A2780.
`COc1ccc2cc1CN(C)CCCNC(=O)[C@@H]1CCCN1Cc1cc(cc(N3CCOCC3)c1)Nc1nccc-2n1` [Compound 179]: the IC50 on PLK4 (h), with U87-MG, on PLK1 T210D (h), in the experiment with MDA-MB-231 and in the experiment with A2780 was more than 10 µM in each case.
On to `CN1CCCNC(=O)C2CCN(CC2)Cc2cccc(c2)Nc2nccc(n2)-c2ccc(cc2)C1` [Compound 78], for which the IC50 at PLK4 (h) is 4.9 µM; with U87-MG, 7.08 µM; at PLK1 T210D (h), more than 10 µM; with MDA-MB-231 it was 7.59 µM; in the experiment with A2780 it was more than 10 µM.
As for `COCCNC(=O)c1ccc2cc1CN1CCC[C@H]1C(=O)NCc1cccc(c1)-c1ccnc(n1)N2` [Compound 40], the IC50 was 0.288 µM on PLK4 (h); 2.29 µM with U87-MG; more than 10 µM at PLK1 T210D (h); more than 10 µM in the experiment on MDA-MB-231; 4.68 µM with A2780.
In the case of `COc1ccc2cc1CN(C)CCCNC(=O)CN1CCN(CC1)Cc1cc(Br)cc(c1)Nc1nccc-2n1` [Compound 144], the IC50 at PLK4 (h) is 4.17 µM; in the experiment on U87-MG, 9.33 µM; at PLK1 T210D (h), more than 10 µM; with MDA-MB-231, more than 10 µM; in the experiment on A2780, more than 10 µM.
With `O=C1CN2CCN(CC2)Cc2cc(ccc2N2CCOCC2)Nc2nccc(n2)-c2cccc(c2)OCCCN1` [Compound 103], the IC50 is 1.1 µM at PLK4 (h); more than 10 µM with U87-MG; more than 10 µM on PLK1 T210D (h); more than 10 µM in the experiment on MDA-MB-231; more than 10 µM with A2780.
On to `O=C1NCc2cccc(c2)-c2ccnc(n2)Nc2cc(CNC3CCCCC3)cc(c2)CN2CCC[C@@H]12` [Compound 36], for which the IC50 on PLK4 (h) is 0.219 µM; in the experiment on U87-MG, 0.282 µM; on PLK1 T210D (h), more than 10 µM; with MDA-MB-231, 1.82 µM; in the experiment on A2780, 0.55 µM.
As to `COc1ccc2cc1CN(C)CCNC(=O)CN1CCN(CC1)Cc1cccc(c1)Nc1nccc-2n1` [Compound 147], the IC50 at PLK4 (h), with U87-MG, on PLK1 T210D (h), with MDA-MB-231 and in the experiment with A2780 was more than 10 µM each time.
For `COc1ccc2cc1CN1CCC(CC1)C(=O)N(C)CCN(C)c1ccc(cn1)-c1ccnc(n1)N2` [Compound 4], the IC50 on PLK4 (h) is 2.4 µM; with U87-MG, more than 10 µM; on PLK1 T210D (h) it was more than 10 µM; in the experiment with MDA-MB-231, more than 10 µM; in the experiment on A2780, more than 10 µM.
As for `C[C@@H]1NCc2cc(ccc2N2CCOCC2)Nc2nccc(n2)-c2cccc(c2)OCCCNC1=O` [Compound 88], the IC50 at PLK4 (h) was 0.447 µM; in the experiment on U87-MG, 3.55 µM; on PLK1 T210D (h) it was more than 10 µM; with MDA-MB-231, 6.76 µM; in the experiment on A2780, 3.39 µM.
For `C[C@H]1NCc2cc(ccc2N2CCOCC2)Nc2nccc(n2)-c2cccc(c2)OCCCNC1=O` [Compound 87] the same measures were 0.407 µM, 6.17 µM, more than 10 µM, 8.13 µM and 8.71 µM.
On the same counts, the results for `CN(C)Cc1cc2cc(c1)Nc1nccc(n1)-c1cccc(c1)CNC(=O)[C@@H]1CCCN1C2` [Compound 30] are 0.162 µM, 0.145 µM, more than 10 µM, 0.257 µM and 0.174 µM.
On the same counts, the results for `COc1ccc2cc1CN(C)CCNC(=O)C1CCN(CC1)Cc1cc(cc(N3CCOCC3)c1)Nc1nccc-2n1` [Compound 77] are 4.79 µM, more than 10 µM, more than 10 µM, more than 10 µM and more than 10 µM.
As for `CN1CCCNC(=O)[C@H](CO)NCc2cc(cc(N3CCOCC3)c2)Nc2nccc(n2)-c2ccc(cc2)C1` [Compound 10], the IC50 is 0.513 µM on PLK4 (h); more than 10 µM with U87-MG; more than 10 µM on PLK1 T210D (h); more than 10 µM in the experiment on MDA-MB-231; more than 10 µM in the experiment on A2780.
For the molecule `O=C1NCCCOc2cccc(c2)-c2ccnc(n2)Nc2ccc(N3CCOCC3)c(c2)CN[C@H]1CO` [Compound 89], the IC50 was 0.525 µM at PLK4 (h); more than 10 µM in the experiment on U87-MG; more than 10 µM on PLK1 T210D (h); more than 10 µM in the experiment on MDA-MB-231; 6.76 µM in the experiment on A2780.
For `O=C1NCCCOc2ccc(cc2)-c2ccnc(n2)Nc2ccc(N3CCOCC3)c(c2)CN2CCC1CC2` [Compound 92], the IC50 on PLK4 (h) is 0.398 µM; with U87-MG, 0.178 µM; on PLK1 T210D (h), more than 10 µM; with MDA-MB-231, 2.51 µM; with A2780, 0.525 µM.
For `COc1ccc2cc1CN(C)CCCNC(=O)[C@@H]1CCCN1Cc1cc(cc(NC(C)C)c1)Nc1nccc-2n1` [Compound 164] the same measures were 2.63 µM, 2.09 µM, more than 10 µM, more than 10 µM and more than 10 µM.
`CN(C)C(=O)c1ccc2cc1CN1CCC[C@H]1C(=O)NCc1cccc(c1)-c1ccnc(n1)N2` [Compound 24]: the IC50 is 0.0776 µM on PLK4 (h); 4.27 µM in the experiment with U87-MG; more than 10 µM at PLK1 T210D (h); more than 10 µM in the experiment on MDA-MB-231; 5.89 µM in the experiment on A2780.
On to `COc1ccc2cc1CN1CCN(CC1)CC(=O)N(C)CCN(C)c1ccc(cn1)-c1ccnc(n1)N2` [Compound 14], for which the IC50 at PLK4 (h) is 1.35 µM; in the experiment on U87-MG, more than 10 µM; on PLK1 T210D (h) it was more than 10 µM; with MDA-MB-231 it was more than 10 µM; in the experiment on A2780 it was more than 10 µM.
On to `O=C1NCCNc2cc(ccn2)-c2ccnc(n2)Nc2ccc(N3CCOCC3)c(c2)CN2CCC1CC2` [Compound 84], for which the IC50 at PLK4 (h) is 5.37 µM; in the experiment with U87-MG, 9.33 µM; at PLK1 T210D (h), more than 10 µM; in the experiment on MDA-MB-231 it was more than 10 µM; with A2780, more than 10 µM.
`O=C1NCCCNCc2ccc(cc2)-c2ccnc(n2)Nc2ccc(N3CCOCC3)c(c2)CN2C[C@H](O)C[C@@H]12` [Compound 169]: the IC50 at PLK4 (h) was 3.89 µM; in the experiment on U87-MG, more than 10 µM; at PLK1 T210D (h), more than 10 µM; in the experiment with MDA-MB-231, more than 10 µM; in the experiment on A2780 it was more than 10 µM.
Consider `CN1CCNC(=O)C2CCN(CC2)Cc2cccc(c2)Nc2nccc(n2)-c2ccc(cc2)C1` [Compound 82], for which the IC50 is 6.31 µM at PLK4 (h); more than 10 µM in the experiment with U87-MG; more than 10 µM on PLK1 T210D (h); more than 10 µM with MDA-MB-231; more than 10 µM in the experiment on A2780.
For `CN1CCCNC(=O)[C@@H]2CCCN2Cc2cccc(c2)Nc2nccc(n2)-c2ccc(cc2)C1` [Compound 173], the IC50 is 6.17 µM at PLK4 (h); more than 10 µM with U87-MG; more than 10 µM on PLK1 T210D (h); more than 10 µM with MDA-MB-231; more than 10 µM in the experiment with A2780.
On to `O=C1NCCOc2ccc(cc2)-c2ccnc(n2)Nc2ccc(N3CCOCC3)c(c2)CN2CCC1CC2` [Compound 6], for which the IC50 at PLK4 (h) was 0.316 µM; in the experiment with U87-MG, 0.575 µM; at PLK1 T210D (h), more than 10 µM; with MDA-MB-231, 0.363 µM; with A2780 it was 0.195 µM.
For `COc1ccc2cc1CN(C)CCNC(=O)CN1CCN(CC1)Cc1cc(cc(NC(C)C)c1)Nc1nccc-2n1` [Compound 142] the same measures were 3.31 µM, 5.62 µM, more than 10 µM, more than 10 µM and more than 10 µM.
